Values quoted from earlier work in patent publication WO2011084962A1, “Analogs of dehydrophenylahistins” (Nereus Pharmaceuticals Inc, priority 2010, dated 2011).

How the values were obtained:
[1] = test system: cell cycle progression in the M phase
[2] = test system: microtubule assembly
[3] = test system: retinal neovascularization; conditions: occurs during proliferative retinopathy
[4] = test system: VEGF induced retinal neovascularization; conditions: in vivo
[5] = test system: choroidal neovascularization; conditions: in vivo
[6] = test system: neovessels in non-neoplastic tissue; conditions: in vivo

Structure (SMILES): COc1ccc2c(C[C@@H]3NC(=O)[C@@H]4CCCN4C3=O)c(CC=C(C)C)[nH]c2c1 [tryprostatin A]
- inhibition of cell cycle progression in the M phase [1]: inhibited cell cycle progression in the M phase
- effect on the microtubule assembly [2]: affect the microtubule assembly

Structure (SMILES): COc1ccc(/C=C\c2cc(OC)c(OC)c(OC)c2)cc1OP(=O)(O)O [CA-4P]
- inhibition of retinal neovascularization [3]: inhibit the retinal neovascularization that occurs during proliferative retinopathy
- suppression of the development of VEGF induced retinal neovascularization [4]: suppress the development of VEGF induced retinal neovascularization
- inhibition of development and/or partial regression of choroidal neovascularization [5]: inhibit the development and/ or cause partial regression of choroidal neovascularization

Structure (SMILES): COc1ccc(/C=C\c2cc(OC)c(OC)c(OC)c2)cc1O [Combretastatin A-4]
- disruption of neovessels in non-neoplastic tissue [6]: cause the disruption of neovessels in non-neoplastic tissue

Structure (SMILES): CC(C)=CCc1[nH]c2ccccc2c1C[C@@H]1NC(=O)[C@@H]2CCCN2C1=O [tryprostatin B]
- inhibition of cell cycle progression in the M phase [1]: inhibited cell cycle progression in the M phase
- effect on the microtubule assembly [2]: affect the microtubule assembly
